# From US20250042904A1, “COMPOUNDS USED AS SRC INHIBITORS” (WIGEN BIOMEDICINE TECHNOLOGY (SHANGHAI) CO., LTD., priority 2021, published 2025)
# How the values were obtained:
# recombinant protein Src = recombinant protein Src (Homo sapiens (Human), UniProt P12931); assay: In vitro assay for inhibiting Src kinase activity (biotin-labeled TK substrate, Sa-XL 665, Cryptate-labeled antibody); format: biochemical; conditions: read-out: IC50, inhibitory activity against recombinant protein Src
# Procedure: After the compound serially diluted with DMSO and a Src recombinant protein were incubated at room temperature for 10 min, the reaction was initiated by the addition of a biotin-labeled TK substrate and ATP. After the mixture was left to stand at room temperature for 40 min Sa-XL 665 and a Cryptate-labeled antibody were added. The fluorescence values at 615 nm and 665 nm were measured, and the ratio of 665 nm to 615 nm was calculated. The inhibition percentages and IC50 of the compounds were calculated compared to the DMSO group.
# PC3 cells = assay: In vitro anti-proliferative activity against PC3 cells (agarose, 7 days); format: cell-based; conditions: Homo sapiens, PC-3, 168 h, 7 days of incubation
# Procedure: PC3 cells were mixed with 0.4% agarose at 1200 cells/well, and the mixture was seeded on 0.6% agarose. The compound serially diluted was added, and the cell number was measured after 7 days of incubation. The inhibition percentages and IC50 of the compounds were calculated compared to the DMSO group.
# [1] = test system: PC3 subcutaneous xenograft tumor; assay: In vivo pharmacodynamic study, mouse PC3 subcutaneous xenograft tumor model
# Procedure: Each nude mouse was grafted subcutaneously with 10×10^6 PC3 cells. When the tumor grew to 100-200 mm^3, the compound was administered orally once a day, and the tumor volume was measured twice a week and at the end of treatment. Tumor growth inhibition rate of the compound was calculated according to the following equation: tumor growth inhibition (TGI)=1−(tumor volume on day 17 in treatment group−tumor volume on day 1 in treatment group)/(tumor volume on day 17 in vehicle control group−tumor volume on day 1 in […]).
# [2] = Stability experiment in aqueous hydrochloric acid solution pH 2 (HPLC); format: physicochemical; conditions: for Initial purity: before acid treatment (baseline); for Purity after stirring in an aqueous hydrochloric acid solution with a pH of 2 for 0.5 h: pH 2, room temperature
# Procedure: 5 mg each of compound 59 and compound A was dissolved in an aqueous hydrochloric acid solution (5 mL) with a pH of 2. The mixture was stirred at room temperature. Samples were taken after 0.5 h for HPLC assay using the following assay conditions. The HPLC assay results are shown in Table 7. • Instrument: Agilent 1260 infinity 2 • Column: Xtimate C18 4.6*150 mm,3 um • Temperature:25° C. • Wave length:210 nm/254 nm • phase A: H2O (0.1% TFA) • phase B: MECN (0.1% TFA) • Gradient: […]
# [3] = In vivo pharmacokinetic experiment in CD-1 female mice; conditions: mouse, plasma, CD-1 mice; for Vd: read-out: Vdss
# Procedure: CD-1 female mice aged 7 to 10 weeks were intravenously administered and orally administered at a dose of 2 mg/kg and 10 mg/kg, respectively. The mice were fasted for at least 12 h before the administration and given food 4 h after the administration, and they were given ad libitum access to water during the experiment. On the day of the experiment, animals in the intravenous group were administered the corresponding compound by single injection via the tail vein at an administration volume of 10 mL/kg. Animals in the oral group were administered the corresponding compound by single intragastric injection at an administration volume of 10 mL/kg. The animals were weighed before administration, and the administration volume was calculated according to the body weight. The sample collection time was 0.083 h (injection group), 0.167 h, 0.5 h, 1 h, 2 h, 4 h, 8 h, and 24 h. About 200 μL of whole blood was collected through the submaxillary venous plexus at each time point and used to prepare plasma for concentration determination by high-performance liquid chromatography-tandem mass spectrometry (LC-MS/MS). All animals were euthanized with CO2 anesthesia after the PK samples were collected at the last time point. The plasma concentrations were processed using a non-compartmental model of Phoenix WinNonlin™ version 8.3 (Certara) pharmacokinetic software, and the pharmacokinetic parameters were calculated using a linear-log trapezoidal method.
# recombinant protein Src, sequence (P12931 whole entry, looked up): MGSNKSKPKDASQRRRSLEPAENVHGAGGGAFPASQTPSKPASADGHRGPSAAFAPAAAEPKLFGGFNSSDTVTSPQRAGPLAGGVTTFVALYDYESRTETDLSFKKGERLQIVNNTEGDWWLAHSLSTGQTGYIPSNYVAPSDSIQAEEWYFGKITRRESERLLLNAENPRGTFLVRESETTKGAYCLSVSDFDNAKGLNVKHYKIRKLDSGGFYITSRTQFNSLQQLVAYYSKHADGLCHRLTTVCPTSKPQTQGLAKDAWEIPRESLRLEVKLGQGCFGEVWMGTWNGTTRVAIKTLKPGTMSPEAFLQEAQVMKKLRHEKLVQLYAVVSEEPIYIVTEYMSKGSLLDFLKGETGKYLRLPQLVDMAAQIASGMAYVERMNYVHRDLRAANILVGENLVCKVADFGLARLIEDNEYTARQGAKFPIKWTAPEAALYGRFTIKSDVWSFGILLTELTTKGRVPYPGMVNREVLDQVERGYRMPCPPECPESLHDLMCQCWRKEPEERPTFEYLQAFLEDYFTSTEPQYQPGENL
IC50 (recombinant protein Src) [nM],SMILES,other results
≤ 10,CN(C)C1CCN(CCn2nc(-c3ccc(NC(=O)OC(C)(C)C)c4c3OCO4)c3c(N)ncnc32)CC1 [Compound 1],IC50 (PC3 cells): 3.5 nM
≤ 10,CN(C)C1CCN(CCn2nc(-c3ccc(NC(=O)OC4CC4)c4c3OCO4)c3c(N)ncnc32)CC1 [Compound 2],–
≤ 10,CN(C)C1CCN(CCn2nc(-c3ccc(NC(=O)OC4(C)CC4)c4c3OCO4)c3c(N)ncnc32)CC1 [Compound 3],IC50 (PC3 cells): 4.8 nM
≤ 10,CN(C)C1CCN(CCn2nc(-c3ccc(NC(=O)OC4CCC4)c4c3OCO4)c3c(N)ncnc32)CC1 [Compound 4],–
≤ 10,CN(C)C1CCN(CCn2nc(-c3ccc(NC(=O)OC4(C)CCC4)c4c3OCO4)c3c(N)ncnc32)CC1 [Compound 5],IC50 (PC3 cells): 4.2 nM
≤ 10,CN(C)C1CCN(CCn2nc(-c3ccc(NC(=O)OC4C5CC4C5)c4c3OCO4)c3c(N)ncnc32)CC1 (stereo not shown) [Compound 6],–
≤ 10,CN(C)C1CCN(CCn2nc(-c3ccc(NC(=O)OC45CC(C4)C5)c4c3OCO4)c3c(N)ncnc32)CC1 [Compound 7],–
10 to 50,CC(C)OC(=O)Nc1ccc(-c2nn(CCN3CCC(N(C)C)CC3)c3ncnc(N)c23)c2c1OCO2 [Compound 8],–
10 to 50,CCOC(=O)Nc1ccc(-c2nn(CCN3CCC(N(C)C)CC3)c3ncnc(N)c23)c2c1OCO2 [Compound 9],–
≤ 10,CN(C)C1CCN(CCn2nc(-c3ccc(NC(=O)OC4CC(F)(F)C4)c4c3OCO4)c3c(N)ncnc32)CC1 [Compound 12],–
10 to 50,CN(C)C1CCN(CCn2nc(-c3ccc(NC(=O)OC4CCCC4)c4c3OCO4)c3c(N)ncnc32)CC1 [Compound 13],–
≤ 10,CN(C)C1CCN(CCn2nc(-c3ccc(NC(=O)OC4COC4)c4c3OCO4)c3c(N)ncnc32)CC1 [Compound 14],–
10 to 50,CN(C)C1CCN(CCn2nc(-c3cc(F)c(NC(=O)OC(C)(C)C)c4c3OCO4)c3c(N)ncnc32)CC1 [Compound 17],–
10 to 50,CN(C)C1CCN(CCn2nc(-c3c(F)cc(NC(=O)OC(C)(C)C)c4c3OCO4)c3c(N)ncnc32)CC1 [Compound 18],–
10 to 50,CN(C)C1CCN(CCn2nc(-c3cnc(NC(=O)OC(C)(C)C)c4c3OCO4)c3c(N)ncnc32)CC1 [Compound 19],–
10 to 50,CN(C)C1CCN(CCn2nc(-c3ncc(NC(=O)OC(C)(C)C)c4c3OCO4)c3c(N)ncnc32)CC1 [Compound 20],–
≤ 10,CN(C1CC1)C1CCN(CCn2nc(-c3ccc(NC(=O)OC(C)(C)C)c4c3OCO4)c3c(N)ncnc32)CC1 [Compound 36],–
≤ 10,CC(C)(C)OC(=O)Nc1ccc(-c2nn(CCN3CCC(N4CCCC4)CC3)c3ncnc(N)c23)c2c1OCO2 [Compound 37],IC50 (PC3 cells): 11.7 nM
≤ 10,CN(C)[C@H]1CCN(CCn2nc(-c3ccc(NC(=O)OC(C)(C)C)c4c3OCO4)c3c(N)ncnc32)C1 [Compound 38],–
≤ 10,CN(C)[C@@H]1CCN(CCn2nc(-c3ccc(NC(=O)OC(C)(C)C)c4c3OCO4)c3c(N)ncnc32)C1 [Compound 39],–
≤ 10,CC(C)(C)OC(=O)Nc1ccc(-c2nn(CCN3CCN(CCO)CC3)c3ncnc(N)c23)c2c1OCO2 [Compound 41],–
≤ 10,CN(C)CCN1CCN(CCn2nc(-c3ccc(NC(=O)OC(C)(C)C)c4c3OCO4)c3c(N)ncnc32)CC1 [Compound 42],–
≤ 10,CN(C)CC1CCN(CCn2nc(-c3ccc(NC(=O)OC(C)(C)C)c4c3OCO4)c3c(N)ncnc32)CC1 [Compound 43],–

IC50 (recombinant protein Src) [nM],SMILES,other results
≤ 10,CN(C)CCC1CCN(CCn2nc(-c3ccc(NC(=O)OC(C)(C)C)c4c3OCO4)c3c(N)ncnc32)CC1 [Compound 44],–
≤ 10,COCCN1CCN(CCn2nc(-c3ccc(NC(=O)OC(C)(C)C)c4c3OCO4)c3c(N)ncnc32)CC1 [Compound 45],–
≤ 10,CC(C)(C)OC(=O)Nc1ccc(-c2nn(CCN3CCC(C#N)CC3)c3ncnc(N)c23)c2c1OCO2 [Compound 46],–
≤ 10,CN1CCN(C2CCN(CCn3nc(-c4ccc(NC(=O)OC(C)(C)C)c5c4OCO5)c4c(N)ncnc43)CC2)CC1 [Compound 47],–
≤ 10,CN1CC(OC(=O)Nc2ccc(-c3nn(CCN4CCC(N5CCC5)CC4)c4ncnc(N)c34)c3c2OCO3)C1 [Compound 48],–
≤ 10,CN1CCC2(CC1)CCN(CCn1nc(-c3ccc(NC(=O)OC(C)(C)C)c4c3OCO4)c3c(N)ncnc31)CC2 [Compound 49],–
≤ 10,CN(C)CCN(C)CCn1nc(-c2ccc(NC(=O)OC(C)(C)C)c3c2OCO3)c2c(N)ncnc21 [Compound 50],–
≤ 10,CN(C)C1CCN(CCn2nc(-c3ccc(NC(=O)OC(C)(C)C)c4c3OC(F)(F)O4)c3c(N)ncnc32)CC1 [Compound 51],–
≤ 10,CN(C)C1CCN(CCCn2nc(-c3ccc(NC(=O)OC(C)(C)C)c4c3OCO4)c3c(N)ncnc32)CC1 [Compound 52],–
≤ 10,CC(C)(C)OC(=O)Nc1ccc(-c2nn(CCN3CCC(N4CCOCC4)CC3)c3ncnc(N)c23)c2c1OCO2 [Compound 57],–
≤ 10,COC1CCN(CCn2nc(-c3ccc(NC(=O)OC(C)(C)C)c4c3OCO4)c3c(N)ncnc32)CC1 [Compound 58],–
≤ 10,COc1cc(-c2nn(CCN3CCC(N(C)C)CC3)c3ncnc(N)c23)ccc1NC(=O)OC1(C)CC1 [Compound 59],"TGI (tumor growth inhibition) ([1]; day 17, oral once a day, 50 mg/kg (day 1-day 7), 80 mg/kg (day 8-day 18)): 53%; Tumor volume on day 17 of treatment ([1]; nude mice, oral once a day, 50 mg/kg (day 1-day 7), 80 mg/kg (day 8-day 18)): 318 mm^3; Tumor volume on day 1 of treatment ([1]; nude mice, oral once a day, baseline day 1): 120 mm^3; Initial purity [2]: 96.35%; Purity after stirring in an aqueous hydrochloric acid solution with a pH of 2 for 0.5 h [2]: 96.16%; AUC(0-t) ([3]; oral administration 10 mg/kg): 491 ng·h/mL; Cmax ([3]; oral administration 10 mg/kg): 88.9 ng/mL; bioavailability ([3]; oral administration 10 mg/kg): 32.1%; half-life ([3]; oral administration 10 mg/kg): 318 min; AUC(0-t) ([3]; iv, injection 2 mg/kg): 300 ng·h/mL; clearance ([3]; iv, injection 2 mg/kg): 1770 mL/min/kg; half-life ([3]; iv, injection 2 mg/kg): 354 min; Vd ([3]; iv, injection 2 mg/kg): 35.6 L/kg; IC50 (PC3 cells): 5.3 nM"
≤ 10,COc1cc(-c2nn(CCN3CCC(N(C)C)CC3)c3ncnc(N)c23)ccc1NC(=O)OC1CCC1 [Compound 60],–
≤ 10,COc1cc(-c2nn(CCN3CCC(N(C)C)CC3)c3ncnc(N)c23)ccc1NC(=O)OC1(C)CCC1 [Compound 61],IC50 (PC3 cells): 5.6 nM
≤ 10,COc1cc(-c2nn(CCN3CCC(N(C)C4CC4)CC3)c3ncnc(N)c23)ccc1NC(=O)OC(C)(C)C [Compound 62],IC50 (PC3 cells): 10.1 nM
≤ 10,COc1cc(-c2nn(CCN3CCC(N(C)C)CC3)c3ncnc(N)c23)ccc1NC(=O)OC1CC1 [Compound 63],–
≤ 10,COc1cc(-c2nn(CCN3CCC(N(C)C)CC3)c3ncnc(N)c23)ccc1NC(=O)OC1C2CC1C2 (stereo not shown) [Compound 64],–
≤ 10,COc1cc(-c2nn(CCN3CCC(N(C)C)CC3)c3ncnc(N)c23)ccc1NC(=O)OC12CC(C1)C2 [Compound 65],–
≤ 10,COc1cc(-c2nn(CCN3CCC(N(C)C4CC4)CC3)c3ncnc(N)c23)ccc1NC(=O)OC1(C)CCC1 [Compound 68],IC50 (PC3 cells): 15.2 nM
≤ 10,COc1cc(-c2nn(CCN3CCC(N(C)C4CC4)CC3)c3ncnc(N)c23)ccc1NC(=O)OC1(C)CC1 [Compound 69],IC50 (PC3 cells): 12.5 nM
≤ 10,COc1cc(-c2nn(CCN3CCC(N(C)C)CC3)c3ncnc(N)c23)ccc1NC(=O)OC1CC(F)(F)C1 [Compound 70],–
–,"COc1cc(-c2nn(CCN3CCC(N(C)C)CC3)c3ncnc(N)c23)ccc1NC(=O)OC(C)(C)C [Compound A, reference compound]","Initial purity [2]: 96.18%; Purity after stirring in an aqueous hydrochloric acid solution with a pH of 2 for 0.5 h [2]: Complete degradation; AUC(0-t) ([3]; oral administration 10 mg/kg): 1440 ng·h/mL; Cmax ([3]; oral administration 10 mg/kg): 211 ng/mL; bioavailability ([3]; oral administration 10 mg/kg): 42.9%; half-life ([3]; oral administration 10 mg/kg): 342 min; AUC(0-t) ([3]; iv, injection 2 mg/kg): 682 ng·h/mL; clearance ([3]; iv, injection 2 mg/kg): 775 mL/min/kg; half-life ([3]; iv, injection 2 mg/kg): 384 min; Vd ([3]; iv, injection 2 mg/kg): 15.2 L/kg"
